Data: patent US10278974B2 (Pfizer Inc., priority 2010, dated 2019)

What was measured:
Type in all cases: physicochemical
[1] = Physical stability on storage, followed by PXRD; settings: two weeks of storage at 70° C. with 75% relative humidity
Experimental: A PXRD pattern for maleate polymorph Form B was measured at: 1) an initial time point and 2): two weeks after storage at 70° C. with 75% relative humidity (RH).
A PXRD pattern for S-camsylate polymorph Form A was measured at: 1) an initial time point and 2): two weeks after storage at 70° C. with 75% relative humidity (RH).

[2] = Hygroscopicity by dynamic vapor sorption (DVS); settings: 30° C., 0 to 90% RH in 15% RH intervals
Experimental: Solid (20-25 mg) was exposed to a controlled relative humidity (% RH) and temperature environment (30° C.), and the weight change was recorded over time. The humidity was stepped from 0 to 90% RH in 15% RH intervals.

[3] = Susceptibility of salt forms to hydration; settings: compared to other salt forms of Compound 1; solid dosage form suitability

| change of PXRD pattern after storage (physical stability) [1] | hygroscopicity indicated by dynamic vapor sorption isotherm [2] | susceptibility to hydration [3] | SMILES |
| --- | --- | --- | --- |
| did not change significantly | non-hygroscopic | not susceptible to hydration | CC1(C)[C@@H]2CC[C@@]1(CS(=O)(=O)O)C(=O)C2.CNCc1ccc(-c2[nH]c3cc(F)cc4c3c2CCNC4=O)cc1 [S-camsylate polymorph Form A] |
| did not change significantly | non-hygroscopic | not susceptible to hydration | CNCc1ccc(-c2[nH]c3cc(F)cc4c3c2CCNC4=O)cc1.O=C(O)C=CC(=O)O [maleate polymorph Form B] |
